# Test results taken from EP4775577A1, “RAS INHIBITOR” (Tyligand Bioscience (Shanghai) Limited, priority 2023, dated 2025).
# Assays:
# [1] = system: KRAS G12V mutant NCI-H727 cells; experiment: Proliferation inhibition of NCI-H727 cells, 3D CellTiter-Glo assay (Method B); assay type: cell-based, human; conditions: Homo sapiens, NCI-H727, 120 h, Method B; 3D culture with 0.65% methylcellulose, 5 days, CTG; read-out: NCI-H727 IC50/nM
# Method in brief: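 Cells grown in 3D medium (RPMI-1640, 10% FBS, 0.65% methylcellulose) overnight, then treated 5 days at 37 °C, 5% CO2 with 9 threefold dilutions from 10 µM top working concentration, duplicate wells. CellTiter-Glo luminescence read; IC50 (nM) fitted by dose-response-inhibition equation.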
# [2] = system: KRAS G12D mutant AGS cells; experiment: Proliferation inhibition of AGS cells, CellTiter-Glo assay; assay type: cell-based, human; conditions: Homo sapiens, AGS, 72 h, 3 days, CTG; read-out: AGS IC50/nM
# Method in brief: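 AGS cells at 1500 cells/well in F12K + 10% FBS were exposed for 3 days at 37°C to nine 3-fold dilutions from 10 µM top concentration, in duplicate. Viability read by CellTiter-Glo luminescence; IC50 (nM) from dose-response-inhibition fitting.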
# [3] = system: Ba/F3-KRAS-G12C-A59T; experiment: Ba/F3 KRAS-mutant cell proliferation inhibition (CellCounting-Lite 2.0); assay type: cell-based; conditions: Mus musculus, BaF3, Ba/F3-KRAS-G12C-A59T (KC-2610), 72 h
# Excerpt: (§1) This experiment evaluated the proliferation inhibitory activity of the compounds of the present invention against Ba/F3-KRAS mutant cell lines by using the CellCounting-Lite®2.0 method.
# (§2) The following materials, reagents, and instruments were used in this experiment: Cells were all obtained from Kangyuan Bochuang Biotechnology (Beijing) Co., Ltd. RPMI-1640 (Hyclone, SH30809.01); fetal bovine serum (FBS) was used. (GIBCO, 10099-141); Phosphate-buffered saline (PBS) (Solarbio, P1020-500); CellCounting-Lite 2.0 Luminescent Cell Viability Assay (Vazyme, DD1101-02); 96-well plate (Absin, abs7016); Multifunctional microplate reader (BMG LABTECH, CLARIOstar® Plus); CO2 incubator (Thermo Scientific, Model 3100 Series).
# (§3) All cell lines were cultured in complete medium at 37°C and 5% CO2. Cells in the logarithmic growth phase were harvested and counted using a platelet counter. Cell viability was assessed using the trypan blue exclusion method to ensure a viability of over 90%. Cell density was adjusted using complete medium (RPMI 1640+10% FBS) and then seeded into 96-well cell culture plates at 90 µL per well, for a total of 3000 cells. The cells in the 96-well plates were cultured at 37°C and 5% CO2. A 10-fold drug solution was prepared using complete medium, and then 10 µL of each serially diluted compound was transferred to the corresponding wells of the 96-well cell culture plate, with two replicates for each drug concentration. The cells in the drug-treated 96-well plates were cultured at 37°C and 5% CO2 for 72 h, followed by CellCounting-Lite 2.0 analysis.
# (§4) The CellCounting-Lite 2.0 Luminescent Cell Viability Assay reagent was thawed and the cell plate was equilibrated to room temperature for 30 minutes. An equal volume of CellCounting-Lite 2.0 Luminescent Cell Viability Assay solution was added to each well and the plate was shaken on an orbital shaker for 5 minutes to lyse the cells. The cell plate was placed at room temperature for 20 minutes to stabilize the cryo-luminescence signal. The cryo-luminescence values were read and the data were collected.
# (§5) Data was analyzed using GraphPad Prism 7.0 software. A nonlinear S-curve regression was used to fit the data to derive the dose-response curve, and the IC50 value was calculated from this curve. [formula]
# [4] = system: Ba/F3-KRAS-G12C-Q99L; experiment: as above; assay type: cell-based; conditions: Mus musculus, BaF3, Ba/F3-KRAS-G12C-Q99L (KC-2611), 72 h
# Excerpt: as §1, §2, §3, §4, §5
# [5] = system: Ba/F3-KRAS-G12C-R68M; experiment: as above; assay type: cell-based; conditions: Mus musculus, BaF3, Ba/F3-KRAS-G12C-R68M (KC-2604), 72 h
# Excerpt: as §1, §2, §3, §4, §5
# [6] = 0.05uM, read-out: Inhibition rate% @0.05uM
# [7] = 1uM, read-out: Inhibition rate% @1uM
structure (smiles),measurement,setting,value
"CCN1CC/C(=C\F)[C@](C)(COc2nc(N3Cc4c(COC)c(C(=O)N(C)C)nn4CC[C@@H]3C)c3cc(Cl)c(-c4c(F)ccc5sc(N)c(C#N)c45)c(F)c3n2)C1 (single isomer, unassigned) [Example 228A]",IC50,[1],< 1.5 nM
same,IC50,[2],< 1.5 nM
same,inhibition at 0.05 µM,[3]; [6],79.8%
same,inhibition at 1 µM,[3]; [7],95.1%
same,inhibition at 0.05 µM,[4]; [6],93.9%
same,inhibition at 1 µM,[4]; [7],98.1%
same,inhibition at 0.05 µM,[5]; [6],91.6%
same,inhibition at 1 µM,[5]; [7],96.6%
